Patent US20200077655A1, “Use of an Acyclic Picolinamide Compound as a Fungicide for Control of Phytopathogenic Fungi in Orchard, Vineyard and Plantation Crops” (Dow AgroSciences LLC, priority 2017, published 2020)

Legend:
Format in all cases: in vivo
Capnodium sp. (CAPDSP) = assay: Field assessment of sooty mold on pears
Excerpt: (§1) A 10% SC formulation of Compound I was tank mixed with three different adjuvants: Agnique BP420 (50% w/w at 0.3% v/v), Ethomeen T18H (50% w/w at 0.15% v/v) and Trycol (50% w/w at 0.3% v/v). Formulations of compound I were sprayed on the plant canopy of pear trees (Highland variety) of approximately 2.5 m in height at rates of 100, 150 and 200 grams of active ingredient per hectare (g ai/ha). The trial was based on six foliar applications during the growing season at approximately 12 day intervals with natural pear scab and sooty mold infections in open field conditions. The treatment was part of an experimental trial designed as a randomized complete block with four replications and a plot of approximately 3×5 m. Formulations of compound I were applied with a SOLO mistblower sprayer at a water volume of 1500 L/ha.
For VENTPI evaluation, percent control was calculated based on incidence and severity in fruit assessment vs the nontreated control on a random selection of 50 fruits per plot. […] Percent control for both diseases was calculated at 11DAAE, 7DAAF and 15DAAF.

[1] = tested on: Cladosporium caryigenum (CLADCA); assay: Field assessment of two trials for pecan nut scab
Excerpt: A fungicidal treatment containing Compound I, applied in an SC formulation (MSO built-in) and tank mixed with an adjuvant (Agnique BP-420, 50% w/w at 0.2% v/v or Adsee C80W 80%), was sprayed on pecan trees (CYAIL, Desirable variety) from pre-flowering up to nut hardening at rates of 60, 120, 150, and 180 g ai/ha. The experimental plots were run with natural infestation. The treatment was part of an experimental trial designed as a randomized complete block (RCB) with four replications and a plot of approximately 40×40 ft, respectively. In one test, compound I was applied in 9 applications at water volume of 94-115 gallons per acre (gal/acre), using an Airblast sprayer (Hollowcone solid disc D10/45 nozzles) and pressurized at 46-54 psi. In the second test, compound I was applied in 8 applications at water volume of […] sprayer (solid stream nozzle) and pressurized at 300 psi. Both trials targeted 14 day intervals for applications.
Disease evaluations were made as % incidence and % severity nuts in one test, 3 evaluations each, 9 applications, and as % incidence nuts and % severity leaves in the second test, 2 and 3 evaluations, respectively, 8 applications. Area under the disease progress curve (AUDPC) was calculated for each plot using the sets of recorded severity and incidence data. Relative AUDPC (% control based on AUDPC) was calculated as percent of the untreated control.

Venturia pyrina (VENTPI) = assay: Field assessment of pear scab; conditions: pears, 15 days after final application
Excerpt: as §1
For VENTPI evaluation, percent control was calculated based on incidence and severity in fruit assessment vs the nontreated control on a random selection of 50 fruits per plot. For CAPDSP assessment, percent control was calculated from percent leaf severity using Abbotts and the nontreated control. Percent control for both diseases was calculated at 11DAAE, 7DAAF and 15DAAF.

[2] = tested on: Mycosphaerella fijiensis (MYCOFI); assay: Field assessment of black sigatoka on banana; conditions: bananas; for Area Under Disease Progression Curve (AUDPC) from severity assessments: 52-59 days after application; for Percent control calculated from severity percentage: 52 days after application
Procedure: Aliquots of a 5% EC formulation of compound I were diluted with water and mixed with Spraytex CT mineral oil (6 L CP/Ha) to achieve active ingredient rates of 25, 50, 100 and 150 g ai/Ha. These treatments were delivered to the foliar affected area of single leaves (application volume of 40 L/Ha) by means of an Aerograph spayer through a plastic molding with an application area of 9×12 centimeters. A single application was delivered to leaf 1 (preventive and very early curative), and leaf 3 (curative effect). Experimental design was based on a randomized complete block, and 4 replications. MYCOFI symptoms resulted from natural inoculation and epidemic development.
Percent disease control was calculated using the ratio of disease severity on treated leaves relative to untreated leaves. Black sigatoka infection was assessed five times during the trial: 31 days after application (31DAA), 38DAA, 45DAA, 52DAA and 59DAA. Area under the disease progress curve (AUDPC) was calculated for each plot using the sets of recorded severity data. Relative AUDPC (% control based on AUDPC) was calculated as percent of the nontreated control.

[3] = 100 g ai/ha, adjuvant Agnique BP420 (first such line, r11)
[4] = 100 g ai/ha, adjuvant Agnique BP420 (second such line, r13)
[5] = 200 g ai/ha, adjuvant Agnique BP420

## COc1ccnc(C(=O)N[C@@H](C)C(=O)O[C@@H](C)C(c2ccc(F)cc2)c2ccc(F)cc2)c1OC(C)=O [Compound I, (S)-1,1-bis(4-fluorophenyl)propan-2-yl (3-acetoxy-4-methoxypicolinoyl)-L-alaninate]
Capnodium sp. (CAPDSP); 100 g ai/ha, adjuvant Agnique BP420 (first such line, r11), 15 days after final application
  Percent control CAPDSP, incidence in leaf assessment: A (76-100)
Capnodium sp. (CAPDSP); 100 g ai/ha, adjuvant Agnique BP420 (second such line, r13), 15 days after final application
  Percent control CAPDSP, incidence in leaf assessment: A (76-100)
Capnodium sp. (CAPDSP); 100 g ai/ha, adjuvant ETHOMEEN, 15 days after final application
  Percent control CAPDSP, incidence in leaf assessment: A (76-100)
Capnodium sp. (CAPDSP); 100 g ai/ha, adjuvant None, 15 days after final application
  Percent control CAPDSP, incidence in leaf assessment: A (76-100)
Capnodium sp. (CAPDSP); 100 g ai/ha, adjuvant Trycol, 15 days after final application
  Percent control CAPDSP, incidence in leaf assessment: A (76-100)
Capnodium sp. (CAPDSP); 200 g ai/ha, adjuvant Agnique BP420, 15 days after final application
  Percent control CAPDSP, incidence in leaf assessment: A (76-100)
[1]; 60 g ai/ha, Agnique BP420, 240 mL/ha
  Calc Percent Control of CLADCA (AUDPC): 25.1%
[1]; 60 g ai/ha, MSO, 120 g ai/ha
  Calc Percent Control of CLADCA (AUDPC): 29.8%
[1]; 120 g ai/ha, Adsee C80W 80%, 300 g ai/ha
  Calc Percent Control of CLADCA (AUDPC): 21.9%
[1]; 120 g ai/ha, Agnique BP420, 480 mL/ha
  Calc Percent Control of CLADCA (AUDPC): 28.8%
[1]; 120 g ai/ha, MSO, 240 g ai/ha
  Calc Percent Control of CLADCA (AUDPC): 30.1%
[1]; 150 g ai/ha, Agnique BP420, 600 mL/ha
  Calc Percent Control of CLADCA (AUDPC): 35.0%
[1]; 150 g ai/ha, MSO, 300 g ai/ha
  Calc Percent Control of CLADCA (AUDPC): 29.8%
[1]; 180 g ai/ha, Agnique BP420, 720 mL/ha
  Calc Percent Control of CLADCA (AUDPC): 32.5%
[1]; 180 g ai/ha, MSO, 360 g ai/ha
  Calc Percent Control of CLADCA (AUDPC): 53.0%
Venturia pyrina (VENTPI); [3]
  Percent control VENTPI, incidence in fruit assessment: B (51-75)
  Percent control VENTPI, severity in fruit assessment: B (51-75)
Venturia pyrina (VENTPI); [4]
  Percent control VENTPI, incidence in fruit assessment: B (51-75)
  Percent control VENTPI, severity in fruit assessment: A (76-100)
Venturia pyrina (VENTPI); 100 g ai/ha, adjuvant ETHOMEEN
  Percent control VENTPI, incidence in fruit assessment: C (26-50)
  Percent control VENTPI, severity in fruit assessment: B (51-75)
Venturia pyrina (VENTPI); 100 g ai/ha, adjuvant None
  Percent control VENTPI, incidence in fruit assessment: C (26-50)
  Percent control VENTPI, severity in fruit assessment: B (51-75)
Venturia pyrina (VENTPI); 100 g ai/ha, adjuvant Trycol
  Percent control VENTPI, incidence in fruit assessment: B (51-75)
  Percent control VENTPI, severity in fruit assessment: B (51-75)
Venturia pyrina (VENTPI); [5]
  Percent control VENTPI, incidence in fruit assessment: B (51-75)
  Percent control VENTPI, severity in fruit assessment: B (51-75)
[2]; Leaf 1 (Preventive), 25 g ai/ha, untreated 665
  Area Under Disease Progression Curve (AUDPC) from severity assessments: 198
[2]; Leaf 1 (Preventive), 25 g ai/ha
  Percent control calculated from severity percentage: B (51-75)
[2]; Leaf 1 (Preventive), 50 g ai/ha, untreated 665
  Area Under Disease Progression Curve (AUDPC) from severity assessments: 211
[2]; Leaf 1 (Preventive), 50 g ai/ha
  Percent control calculated from severity percentage: B (51-75)
[2]; Leaf 1 (Preventive), 100 g ai/ha, untreated 665
  Area Under Disease Progression Curve (AUDPC) from severity assessments: 203
[2]; Leaf 1 (Preventive), 100 g ai/ha
  Percent control calculated from severity percentage: B (51-75)
[2]; Leaf 1 (Preventive), 150 g ai/ha, untreated 665
  Area Under Disease Progression Curve (AUDPC) from severity assessments: 183
[2]; Leaf 1 (Preventive), 150 g ai/ha
  Percent control calculated from severity percentage: B (51-75)
[2]; Leaf 3 (Curative), 25 g ai/ha, untreated 464
  Area Under Disease Progression Curve (AUDPC) from severity assessments: 357
[2]; Leaf 3 (Curative), 25 g ai/ha
  Percent control calculated from severity percentage: C (26-50)
[2]; Leaf 3 (Curative), 50 g ai/ha, untreated 464
  Area Under Disease Progression Curve (AUDPC) from severity assessments: 317
[2]; Leaf 3 (Curative), 50 g ai/ha
  Percent control calculated from severity percentage: C (26-50)
[2]; Leaf 3 (Curative), 100 g ai/ha, untreated 464
  Area Under Disease Progression Curve (AUDPC) from severity assessments: 289
[2]; Leaf 3 (Curative), 100 g ai/ha
  Percent control calculated from severity percentage: C (26-50)
[2]; Leaf 3 (Curative), 150 g ai/ha, untreated 464
  Area Under Disease Progression Curve (AUDPC) from severity assessments: 293
[2]; Leaf 3 (Curative), 150 g ai/ha
  Percent control calculated from severity percentage: C (26-50)
